In patent publication US8460669B2, “Compositions and methods for identifying response targets and treating flavivirus infection responses” (Academia Sinica, priority 2005, dated 2013):

Legend:
[1] = molecular target: T1, Dectin-1 (Homo sapiens, UniProt Q9BXN2); assay: Sugar competition EIA, Fc.Dectin-1 binding to GLPS-F3; conditions: sugar 1 mg/ml
T1 construct: The extracellular domains of lectin receptors, TREMs and TLTs were cloned by the reverse-transcriptase polymerase chain reaction (RT-PCR); made in house; host or cells: 293-F (FreeStyle 293) cells
T1 sequence (Q9BXN2 66-247 limits assumed): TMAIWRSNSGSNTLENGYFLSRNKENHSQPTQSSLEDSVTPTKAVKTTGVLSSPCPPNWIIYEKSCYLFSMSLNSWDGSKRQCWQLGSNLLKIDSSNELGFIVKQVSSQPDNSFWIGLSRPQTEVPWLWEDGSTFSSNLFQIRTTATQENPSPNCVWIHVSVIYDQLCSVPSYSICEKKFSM
Experimental: (§1) The interaction between GLPS-F3 and receptor.Fc was then tested. Unbiotinylated GLPS-F3 was immobilized at 100 ng/well as described above, and 100 μL receptor.Fc fusion protein (1 μg/ml in 2 mM MgCl2/2 mM CaCl2/1% BSA/TBST) was added into each well and incubated for 1 hour at room temperature. After washing with TBST, wells were incubated with peroxidase-conjugated goat anti-human IgG Ab (1:5000 dilution, Jackson ImmunoResearch Laboratories) in blocking buffer at room temperature for 30 min. Wells were incubated with 100 μL TMB substrate for 15 min after TBST washing and read at 450 nm in a Fusion plate reader (Perkin Elmer). The results were normalized with respect to Fc.Dectin-1 binding (Dectin-1 is a known lectin receptor that binds to β-1,3-glucan which is the backbone found in GLPS-F3). FIG. 6B depicts in graphical form the affinity of each receptor for GLPS-F3 relative to Dectin-1. […] There was also weaker but positive GLPS-F3 binding ability (25-50% binding intensity compared to Fc.dectin-1) found in Fc.NKG2D, Fc.MINCLE, Fc.mKCR, DCAL1.Fc, DEC205.Fc, Endo180.Fc and NKp30(NCR3).Fc.
(§2) To understand the interaction of GLPS-F3 with specific innate immunity receptors, the polysaccharides mannan and β-glucan and the monosaccharides D-mannose (Man), D-glucose (Glc), N-acetyl-glucosamine (GlcNAc), D-galactose (Gal), N-acetyl-galactosamine (GalNAc), L-fucose (Fuc) and sialic acid, were used in a competition assay. […] The assays were carried out as in Example 9, with the addition of 1 mg/ml of each polysaccharide or monosaccharide.

[2] = molecular target: T2, Langerin (Homo sapiens, UniProt Q9UJ71); assay: Sugar competition EIA, Fc.Langerin binding to GLPS-F3; conditions: sugar 1 mg/ml
T2 construct: The extracellular domains of lectin receptors, TREMs and TLTs were cloned by the reverse-transcriptase polymerase chain reaction (RT-PCR); made in house; host or cells: 293-F (FreeStyle 293) cells
T2 sequence (Q9UJ71 65-328 limits assumed): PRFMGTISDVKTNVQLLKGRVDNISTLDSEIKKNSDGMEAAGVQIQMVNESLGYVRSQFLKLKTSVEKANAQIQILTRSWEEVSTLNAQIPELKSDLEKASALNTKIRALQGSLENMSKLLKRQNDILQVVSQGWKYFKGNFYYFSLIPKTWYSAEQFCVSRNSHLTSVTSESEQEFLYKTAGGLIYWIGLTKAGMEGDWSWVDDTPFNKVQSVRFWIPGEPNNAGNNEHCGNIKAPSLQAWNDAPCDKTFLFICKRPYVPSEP
Experimental: as §1, §2

[3] = molecular target: T3, DC-SIGN (Homo sapiens, UniProt Q9NNX6); assay: Sugar competition EIA, Fc.DC-SIGN binding to GLPS-F3; conditions: sugar 1 mg/ml
T3 construct: The extracellular domains of lectin receptors, TREMs and TLTs were cloned by the reverse-transcriptase polymerase chain reaction (RT-PCR); made in house; host or cells: 293-F (FreeStyle 293) cells
T3 sequence (Q9NNX6 59-404 limits assumed): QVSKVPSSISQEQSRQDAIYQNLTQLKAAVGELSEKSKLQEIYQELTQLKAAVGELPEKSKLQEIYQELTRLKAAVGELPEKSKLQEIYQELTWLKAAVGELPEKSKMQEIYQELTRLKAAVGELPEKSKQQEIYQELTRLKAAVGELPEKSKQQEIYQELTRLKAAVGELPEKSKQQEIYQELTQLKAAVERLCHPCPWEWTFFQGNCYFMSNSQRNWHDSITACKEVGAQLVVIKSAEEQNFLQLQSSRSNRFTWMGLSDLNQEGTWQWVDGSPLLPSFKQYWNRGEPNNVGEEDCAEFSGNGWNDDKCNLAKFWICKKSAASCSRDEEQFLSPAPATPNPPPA
Experimental: as §1, §2

[4] = molecular target: T4, TLR4.Fc (Homo sapiens, UniProt O00206); assay: Sugar competition EIA, TLR4.Fc binding to GLPS-F3; conditions: sugar 1 mg/ml
T4 construct: The extracellular domains of several innate immunity receptors from immune cells were cloned by reverse-transcription polymerase chain reaction (RT-PCR); made in house; host or cells: 293-F (FreeStyle 293) cells
T4 sequence (O00206 24-631 limits assumed): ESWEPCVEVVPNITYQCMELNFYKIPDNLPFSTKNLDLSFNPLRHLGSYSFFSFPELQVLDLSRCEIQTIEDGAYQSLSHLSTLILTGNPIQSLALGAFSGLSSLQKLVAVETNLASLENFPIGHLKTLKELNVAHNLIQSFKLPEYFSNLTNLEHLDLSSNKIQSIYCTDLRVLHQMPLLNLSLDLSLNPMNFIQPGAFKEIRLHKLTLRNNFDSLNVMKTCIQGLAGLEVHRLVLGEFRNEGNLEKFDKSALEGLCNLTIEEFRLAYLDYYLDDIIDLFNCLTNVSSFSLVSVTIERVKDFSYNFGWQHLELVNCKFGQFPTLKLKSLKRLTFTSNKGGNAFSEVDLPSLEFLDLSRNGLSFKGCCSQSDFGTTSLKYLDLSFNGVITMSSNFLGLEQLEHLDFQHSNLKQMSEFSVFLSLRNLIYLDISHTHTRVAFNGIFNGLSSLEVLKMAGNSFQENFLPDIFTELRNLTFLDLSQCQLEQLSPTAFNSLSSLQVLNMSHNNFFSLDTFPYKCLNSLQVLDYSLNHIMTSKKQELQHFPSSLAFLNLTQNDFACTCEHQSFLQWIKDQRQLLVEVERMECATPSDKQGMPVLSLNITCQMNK
Experimental: as §1, §2

[5] = molecular target: T5, MMR.Fc (Homo sapiens, UniProt P22897); assay: Sugar competition EIA, MMR.Fc binding to GLPS-F3; conditions: sugar 1 mg/ml
T5 construct: The extracellular domains of lectin receptors, TREMs and TLTs were cloned by the reverse-transcriptase polymerase chain reaction (RT-PCR); made in house; host or cells: 293-F (FreeStyle 293) cells
T5 sequence (P22897 19-1389 limits assumed): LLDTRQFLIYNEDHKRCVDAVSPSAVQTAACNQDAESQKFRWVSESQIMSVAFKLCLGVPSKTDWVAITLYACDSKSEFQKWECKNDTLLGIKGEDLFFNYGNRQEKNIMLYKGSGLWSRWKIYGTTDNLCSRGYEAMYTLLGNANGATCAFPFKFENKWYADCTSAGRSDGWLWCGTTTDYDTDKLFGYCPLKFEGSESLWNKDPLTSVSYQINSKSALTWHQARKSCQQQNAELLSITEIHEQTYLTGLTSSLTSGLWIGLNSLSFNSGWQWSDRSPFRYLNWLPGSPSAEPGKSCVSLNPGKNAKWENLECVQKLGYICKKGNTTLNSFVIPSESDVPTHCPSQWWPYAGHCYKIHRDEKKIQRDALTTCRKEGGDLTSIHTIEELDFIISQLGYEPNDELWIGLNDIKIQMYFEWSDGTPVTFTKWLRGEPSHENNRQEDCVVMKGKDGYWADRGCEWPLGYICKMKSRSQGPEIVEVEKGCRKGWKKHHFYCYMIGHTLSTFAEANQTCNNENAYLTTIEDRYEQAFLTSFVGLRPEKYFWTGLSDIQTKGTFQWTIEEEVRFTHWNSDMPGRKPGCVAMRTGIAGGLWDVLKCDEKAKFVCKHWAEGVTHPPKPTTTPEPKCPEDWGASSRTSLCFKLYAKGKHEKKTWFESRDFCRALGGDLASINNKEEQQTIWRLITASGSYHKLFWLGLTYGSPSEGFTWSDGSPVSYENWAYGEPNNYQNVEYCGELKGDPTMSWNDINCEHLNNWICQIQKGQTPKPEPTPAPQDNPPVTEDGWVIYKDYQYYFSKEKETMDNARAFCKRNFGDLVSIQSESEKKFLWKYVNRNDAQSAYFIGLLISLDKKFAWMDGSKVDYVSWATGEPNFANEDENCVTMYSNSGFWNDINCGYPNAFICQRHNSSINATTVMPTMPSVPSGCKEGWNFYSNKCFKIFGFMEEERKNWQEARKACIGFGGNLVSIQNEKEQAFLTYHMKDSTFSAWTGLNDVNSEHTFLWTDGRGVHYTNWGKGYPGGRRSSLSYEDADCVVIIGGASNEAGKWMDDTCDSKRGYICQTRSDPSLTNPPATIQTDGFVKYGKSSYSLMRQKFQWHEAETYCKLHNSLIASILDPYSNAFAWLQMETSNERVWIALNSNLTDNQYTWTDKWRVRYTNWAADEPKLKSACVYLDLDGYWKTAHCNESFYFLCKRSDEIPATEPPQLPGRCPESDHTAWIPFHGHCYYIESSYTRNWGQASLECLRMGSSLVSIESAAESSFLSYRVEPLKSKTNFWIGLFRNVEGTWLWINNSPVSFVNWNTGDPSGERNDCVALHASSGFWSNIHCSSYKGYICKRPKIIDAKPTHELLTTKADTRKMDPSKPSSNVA
Experimental: as §1, §2

[6] = molecular target: T6, CLEC-2 (Homo sapiens, UniProt Q9P126); assay: Sugar competition EIA, Fc.CLEC-2 binding to GLPS-F3; conditions: sugar 1 mg/ml
T6 construct: The extracellular domains of lectin receptors, TREMs and TLTs were cloned by the reverse-transcriptase polymerase chain reaction (RT-PCR); made in house; host or cells: 293-F (FreeStyle 293) cells
T6 sequence (Q9P126 55-229 limits assumed): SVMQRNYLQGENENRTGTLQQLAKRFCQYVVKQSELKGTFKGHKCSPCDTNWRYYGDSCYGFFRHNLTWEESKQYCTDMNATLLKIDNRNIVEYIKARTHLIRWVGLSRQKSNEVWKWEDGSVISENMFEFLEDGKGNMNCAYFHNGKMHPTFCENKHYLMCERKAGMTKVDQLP
Experimental: as §1, §2

[7] = molecular target: T7, CLEC-6 (Homo sapiens, UniProt Q8WXI8); assay: Sugar competition EIA, Fc.CLEC-6 binding to GLPS-F3; conditions: sugar 1 mg/ml
T7 construct: The extracellular domains of lectin receptors, TREMs and TLTs were cloned by the reverse-transcriptase polymerase chain reaction (RT-PCR); made in house; host or cells: 293-F (FreeStyle 293) cells
T7 sequence (Q8WXI8 39-215 limits assumed): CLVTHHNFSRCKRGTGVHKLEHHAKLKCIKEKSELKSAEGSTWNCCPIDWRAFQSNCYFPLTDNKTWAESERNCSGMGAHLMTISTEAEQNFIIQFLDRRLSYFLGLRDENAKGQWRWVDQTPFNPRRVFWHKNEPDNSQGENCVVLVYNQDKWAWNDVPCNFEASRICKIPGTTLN
Experimental: as §1, §2

[8] = molecular target: T8, Dectin-1.Fc (Homo sapiens, UniProt Q9BXN2); assay: Immunosorbent dot binding assay with Dectin-1.Fc; conditions: competitor 0.1 μg-1000 μg, or EDTA 10 mM in TBST
T8 construct: The extracellular domains of lectin receptors, TREMs and TLTs were cloned by the reverse-transcriptase polymerase chain reaction (RT-PCR); made in house; host or cells: 293-F (FreeStyle 293) cells
T8 sequence (Q9BXN2 66-247 limits assumed): T1 sequence (Q9BXN2 66-247 limits assumed)

SMILES	Percentage of binding of Dectin-1 Fc fusion to GLPS-F3 relative to binding in absence of sugar competitor [1]	Percentage of binding of Langerin Fc fusion to GLPS-F3 relative to binding in absence of sugar competitor [2]	inhibition of interaction between Fc.Langerin and GLPS-F3 [2]	Percentage of binding of DC-SIGN Fc fusion to GLPS-F3 relative to binding in absence of sugar competitor [3]	inhibition of binding of Fc.DC-SIGN to GLPS-F3 [3]	Percentage of binding of TLR4.Fc to GLPS-F3 relative to binding in absence of sugar competitor [4]	Percentage of binding of MMR.Fc to GLPS-F3 relative to binding in absence of sugar competitor [5]	inhibition of interaction between GLPS-F3 and MMR.Fc [5]	Percentage of binding of CLEC-2 Fc fusion to GLPS-F3 relative to binding in absence of sugar competitor [6]	Percentage of binding of CLEC-6 Fc fusion to GLPS-F3 relative to binding in absence of sugar competitor [7]	inhibition of the interaction between Dectin-1.Fc and F3 [8]	inhibition of interaction between GLPS-F3 and Fc.Dectin-1 [1]	inhibition of interaction of Fc.CLEC-2 to GLPS-F3 [6]
CC(=O)N[C@H]1C(O)O[C@H](CO)[C@@H](O)[C@@H]1O (stereo partly drawn) [GlcNAc, N-acetyl-glucosamine]	91 ± 2.6%	16 ± 2.7%	84%	73 ± 8.6%	27%	99 ± 4.7%	22 ± 3.4%	78%	103 ± 10.2%	99 ± 8.5%			
O=C[C@H](O)[C@@H](O)[C@H](O)[C@H](O)CO [Glc, D-glucose]					45%	101 ± 4.7%		45%			not		
O=C[C@H](O)[C@@H](O)[C@@H](O)[C@H](O)CO [Gal, D-galactose]						100 ± 2.7%		36%			not		
CC(=O)N[C@H]1C(O)O[C@H](CO)[C@H](O)[C@@H]1O (stereo partly drawn) [GalNAc, N-acetyl-galactosamine]	88 ± 2.6%	97 ± 0.7%		110 ± 3.1%		95 ± 4.1%	80 ± 4.2%		110 ± 11.4%	96 ± 2.4%			
CC(=O)N[C@H]1[C@H]([C@H](O)[C@H](O)CO)OC(O)(C(=O)O)C[C@@H]1O (stereo partly drawn) [sialic acid]	17 ± 0.3%	5 ± 0.3%	95%	10 ± 1.0%	90%	77 ± 3.1%	7 ± 2.4%	93%	45 ± 6.2%	94 ± 13.0%		83%	55%
